A value given as a limit tells only on which side of the number the result lay.

What is called Papp is a coefficient for how fast a substance crosses the barrier.

For series [1], the system named is hepatocyte (HepG2) cell cultures. The experiment in a line: Cytotoxicity assay (LDH release). The series is classed as cell-based. The settings on record: HepG2 cells, 48 hours, 0.1 to 100 μM. How it is done:
This experiment was designed to obtain a preliminary assessment of cytotoxicity.
HepG2 cells were plated in 96-well cell culture plates and allowed to attach overnight at 37° C., 5% CO2 in EMEM+10% FBS. Treatments were made in complete media (EMEM+10% FBS) and included a dilution series of test compounds from 0.1 to 100 μM. Known cytotoxin cerivastatin was used as a positive assay control and prepared at a final concentration of 0.5 μM.
Growth media was replaced with treatment media (EMEM+10% FBS containing test compound dissolved in DMSO) and cells were incubated with test compounds for 48 hours. At the end of the incubation period, supernatant media from each well was transferred to a new plate and LDH assay working solution was added. LDH assay solution undergoes a colorimetric reaction in proportion to the amount of lactate dehydrogenase (an intracellular protein that was only found in the media in the presence of lysed cells) in the media. Color reaction was quantified by measurement of absorbance at a wavelength of 490 nm.
The signal range of the assay was determined by no manipulation in a negative control treatment and full lysis of all cells in a lysis control sample. Compounds that increase the level of cytotoxicity more than 20% above negative control samples were considered cytotoxic in this assay.

In another series the test system is HGF/MET system. The experiment in a line: Phospho-MET ELISA. The arrangement: key: − indicates that the compound failed to significantly augment MET phosphorylation; + indicates maximum potency at or above 100 nM; ++ indicates maximum potency at or above 10 nM; +++ indicates maximum potency at or above 1 nM; ++++ indicates maximum potency at or above 0.1 nM. Format: cell-based. To be noted: HEK293 cells; with 1 ng/mL recombinant HGF; 15 minutes; augmentation of MET phosphorylation (pMET ELISA). Here is the method:
Compounds were screened for potency towards the HGF/MET system using phospho-MET (pMET) ELISA kits (Cell Signaling). pMET levels were detected in samples having low (1 ng/mL) and high (10 ng/mL) concentrations of HGF.
HEK293 cells were prepared by passage into 6-well multi-plates and grown at 37° C. at 5% CO2 in DMEM+10% FBS until approximately 90% confluent. Cells were then starved for at least 8 hours in serum-free growth media.
Exemplary compounds were prepared in DMEM+0.1% FBS, diluted and added to treatment media with 1 ng/mL recombinant HGF protein (R&D Systems). Cells were incubated in triplicate at 37° C. and 5% CO2 for 15 minutes. Samples were then treated with 180 μL ice-cold RIPA (radioimmunoprecipitation assay) buffer and cells were lysed on ice for 15 minutes. Lysates were cleared by centrifugation at 16,000-g for 15 minutes and the supernatant was retained. Samples were normalized using a BCA assay of lysates to determine protein concentrations across the samples.
Between 50 and 100 μg total protein lysate was loaded into ELISA wells in pMET Sandwich ELISA kit (Cell Signaling Catalog #7227C), ensuring equal protein load in each well. The ELISA was processed according to manufacturer's instructions. After color developed, absorbance was read on an optical plate reader at 450 nm.
Potency measurements were determined using peak efficacy by scaling test compound dose treatments along a scale of 1-10 between 1 ng/mL and 10 ng/mL HGF doses according to the following formula: […]
where y is the normalized data-point, x is the raw data point, A is the mean HGF at 1 ng/mL, and B is the mean HGF at 10 ng/mL.

The next series deals with MDCK cells. Description: Cell scattering behavior assay. The series is classed as cell-based. The arrangement: key: − indicates that the compound failed to significantly promote cell scattering behavior; + indicates maximum potency at or above 100 nM; ++ indicates maximum potency at or above 10 nM; +++ indicates maximum potency at or above 1 nM; ++++ indicates maximum potency at or above 0.1 nM. The settings on record: with 5 ng/mL HGF, 24 hours, normalized particle count compared to HGF treatment alone. How it is done: MDCK cells were grown under normal conditions and observed to spontaneously form tight colonies as they proliferate. MDCK cells respond to HGF treatment by moving away from each other (scattering), which is quantified to assess the amount of HGF/MET activation in the cell population. In this experiment, MDCK cells were plated in a 96-well format, treated with HGF and exemplary compounds, fluorescently stained, imaged in large fields, and scattering behavior was quantified. Quantification was determined by analyzing the number of continuous groups of cells compared to the total stained area imaged (normalized particle counts).
MDCK cells were plated at low density in black-walled imaging plates and allowed to attach overnight at 37° C. and 5% CO2 in DMEM+10% FBS. Cells were then starved to 2 hours in DMEM without FBS (“starve media”). Samples containing exemplary compounds were prepared in DMEM without FBS and included 5 ng/mL HGF protein (“treatment media”). A control curve was also prepared for each plate using HGF concentrations of 0, 5, 10, and 20 ng/mL. Starve media was replaced with treatment media and cells were incubated for 24 hours at 37° C. and 5% CO2.
After incubation, cells were fixed by replacing treatment media with cold ethanol and incubating for 20 minutes at 4° C. Cells were then rehydrated by washing with PBS and then with stain solution (fluorescent wheat germ agglutinin; WGA488 at 20 μg/mL in PBS). Cells were incubated with stain solution 30 minutes at room temperature after which stain solution was replaced with fresh PBS.
Fields of cells were imaged using an iCyte high content imager in the green wavelength. Images were converted to binary and analyzed for particle size and particle count. For the purpose of analysis, an individual cell touching no other cells or separated colonies of cells were identified as particles, and particle counts were normalized by the total signal area to account for differences in cell number. […] Compound potency was assessed by statistical increase in normalized particle count compared to HGF treatment alone.

Series [2] in a line: Parallel artificial membrane permeability assay (PAMPA). Format: in vitro ADME. The settings on record: PBS, room temperature for 5 hours, 200 uM in donor well. Here is the method:
Bioavailable drugs must permeate the cellular membranes of the lining of the digestive tract. To estimate the penetrability of exemplary compounds, the in vitro parallel artificial membrane permeability assay (PAMPA) was utilized.
Test compounds must have a standard curve in the final read plate to determine partitioned concentration of each drug. A 6-point standard curve was prepared for each compound from 0 to 200 μM in phosphate-buffered saline (PBS).
Test compound solution (300 μL in PBS) was added to the donor (bottom) well of the PAMPA plate in 5 replicates and PBS vehicle (200 μL) was added to the acceptor (top) wells of appropriate wells to match the loading of the donor plate. The bottom and top of the PAMPA plates were then sandwiched together. The PAMPA plates were then incubated at room temperature for 5 hours. After incubation, 150 μL of donor solution was added to a UV compatible plate containing the corresponding standard curve. 150 μL of acceptor well solution was added adjacent to the corresponding standard curve and donor well samples for that compound. The plate was then read using a UV plate reader.
Permeability and membrane retention were then calculated based on the following formulas:
where: • A=filter area (0.3 cm^2); • VD=donor well volume (0.3 mL); • VA=acceptor well volume (0.2 mL); • t=incubation time (seconds); • CA(t)=compound concentration in acceptor well at time t; • CD(t)=compound concentration in donor well at time t; and
where: • CD(t), VD, CA(t), and VA are as defined for equation 1, and • C0=initial concentration in donor well (200 uM).
In general terms: PAMPA measures passive passage across an artificial lipid membrane.

Series [3] concerns Rat primary cortical neuron cultures. The experiment in a line: Protection from neurotoxicity in vitro (Cell Titer-Glo viability). The series is classed as cell-based. The settings on record: for Insult effect (% viability vs vehicle): 24 hours, with HGF 5 ng/ml; for Protection of cell viability, statistical significance vs. insult control: Positive Control (1 uM). How it is done:
HGF/MET signaling activation is expected to protect cells, including neurons, from cell death. […] Hydrogen peroxide (H2O2) treatment produces toxic oxidative stress. Bacteria-derived lipopolysaccharide (LPS) treatment induces inflammatory cell death. Treatment with excess glutamate (Glut) produces excitotoxicity in neuron cultures. Treatment with 1-methyl-4-phenylpyridinium (MPP^+) causes cell death by inhibition of mitochondrial function.
Rat primary cortical neuron cultures were grown at 37° C., 5% CO2 in Complete Neurobasal Medium supplemented with B27/GDNF/BDNF containing 10% FBS until maturity and were then seeded in 384-well plate at 5,000 cells/well. Cultures were then treated for 15 minutes with 1 uM, 100 nM, 10 nM, 1 nM, or 0.1 nM of compound 1a. Cells were then subjected to individual conditional insults for 24 hours at the following concentrations: H2O2 at 1 uM, LPS at 1 uM, glutamate at 25 uM, MPP+ at 500 uM. All treatments contained recombinant human HGF (R&D Systems) at a concentration of 5 ng/ml.
To quantify neuroprotection, cell viability was measured with the Cell Titer-Glo Luminescent Cell Viability Assay (Promega, Cat #G7571). Data was normalized to DMSO+HGF control set at 100% cell viability. Statistical analyses for each group (n=4) were performed using one-way ANOVA with Tukey's Multiple comparison test.
Data is reported as statistical significance vs. insult control, with NS=not significant, +=p<0.05, ++=p<0.01, and +++=p<0.001.
On the technique in general: Cellular ATP, detected with luciferase, serves as a proxy for viable cell number.

The test system of series [4] is scopolamine-induced cognitive impairment. The experiment in a line: Scopolamine-induced cognitive impairment, T-maze spontaneous alternation task. The series is classed as in vivo, CD-1 mice. To be noted: mice; scopolamine only, 0.89 mg/kg. An excerpt:
Mild cognitive impairment can be assessed in rodent models via delivery of various compounds that interfere with normal neurotransmitter signaling. Scopolamine is a compound that is well-known to antagonize muscarinic acetylcholine receptors, nicotinic receptors, as well as glutamatergic receptors such as NMDA receptors. Thus, delivery of scopolamine results in cognitive impairment, which can be assessed in a variety of cognitive tasks. Positive modulation of the HGF/MET system can promote NMDA receptor activation and results in pro-cognitive effects. Two test compounds, Compound 1a and Compound 5a, were evaluated for their ability to protect against scopolamine-induced cognitive impairment.
In this study, mild cognitive impairment was modeled in otherwise healthy male CD-1 mice (4-5 weeks old at study start) by acute delivery of 0.89 mg/kg scopolamine (dissolved in saline). Test compounds were administered via oral gavage 0.5 hours prior to scopolamine exposure, and cognitive performance was assessed in the T-maze spontaneous alternation task 0.5 hours after scopolamine exposure (1 hour following test compound exposure). The experimental protocol consisted of one single session, which started with 1 “forced-choice” trial, followed by 14 “free-choice” trials. In the first “forced-choice” trial, the animal was confined 5 seconds in the start arm and was then released while either the left or right goal arm was blocked by a horizontal door. After the mouse entered the open goal arm and returned to the start position, the left or right goal door was opened, and the animal was allowed to choose freely between the left and right goal arm (“free choice trials”). The animal was considered to have entered into an arm when it placed its four paws in the arm. Normal animals will choose to explore the previously-unexplored arm, which is recorded as a spontaneous alternation. […] The session was terminated, and the animal was removed from the maze as soon as 14 free-choice trials had been performed or 10 min had elapsed, whichever event occurred first.
This percentage was defined as entry into a different goal arm of the T maze over successive trials (e.g., left-right-left-right) and was calculated using the formula: (% alternations=Number of Alternations/14*100). Both compounds attenuated the degree of scopolamine-induced cognitive impairment, as indicated by increased percent of spontaneous alternations compared to scopolamine-only controls. Statistical analysis was accomplished via 1-way ANOVA with Dunnet's multiple comparisons post-test.

On to `CCC(C)CN1CC2N(C(=O)c3ccc(O)nc3)CCC(=O)N2[C@@H](C)C1=O` (some centres unmarked) [Compound 4a], for which the Cytotoxicity entry in series [1] was “++++ (++++ indicates non-toxic at 100 μM)”. Further, the Potency entry in the series with HGF/MET system and in the series with MDCK cells was “+ (+ indicates maximum potency at or above 100 nM)” each time. The Papp at 5 h, 200 uM in series [2] is greater than 10 ×10⁻⁶ cm/s.
For the compound `CCC(C)N1CC2N(Cc3ccc(O)cc3)CCC(=O)N2CC1=O` (centres unmarked) [Compound 9], the Cytotoxicity result in series [1] is on record as “++++ (++++ indicates non-toxic at 100 μM)”. The Potency result with HGF/MET system and in the series with MDCK cells was “−” in each case. For the same compound, in series [2], the Papp at 5 h, 200 uM is greater than 2 ×10⁻⁶ cm/s.
On to `CCC(C)CN1CC2N(Cc3ccc(F)cc3)CCC(=O)N2C(C)C1=O` (centres unmarked) [Compound 42], for which, in series [1], the Cytotoxicity entry is “++++ (++++ indicates non-toxic at 100 μM)”. The Potency result in the series on HGF/MET system was “++++ (++++ indicates maximum potency at or above 0.1 nM)”; with MDCK cells, “+++ (+++ indicates maximum potency at or above 1 nM)”. Besides, the Papp at 5 h, 200 uM in series [2] is greater than 2 ×10⁻⁶ cm/s.
Regarding `OO` [Compound H2O2, Hydrogen peroxide, reference compound], the “Insult effect (% viability vs vehicle)” value in series [3] (1 uM) stood at 64.23%.
For the compound `N[C@@H](CCC(=O)O)C(=O)O` [Glutamate, glutamate, reference compound], the “Insult effect (% viability vs vehicle)” value in series [3] (25 uM) was found to be 49.55%.
In the case of `C[C@]12N[C@H](Cc3ccccc31)c1ccccc12` [MK-801, reference compound], the “Protection of cell viability, statistical significance vs. insult control” value in series [3] (insult Glutamate (25 uM) 24 hours), in series [3] (insult H2O2 (1 uM) 24 hours), in series [3] (insult LPS (1 uM) 24 hours) and in series [3] (insult MPP+ (500 uM) 24 hours) was “+++ (+++=p<0.001)” throughout.
On to `C[n+]1ccc(-c2ccccc2)cc1` [MPP+, 1-methyl-4-phenylpyridinium, reference compound], for which the “Insult effect (% viability vs vehicle)” value in series [3] (500 uM) turned out to be 49.85%.
Regarding `CN1[C@@H]2C[C@@H](OC(=O)[C@H](CO)c3ccccc3)C[C@H]1[C@@H]1O[C@@H]12` [SCO, scopolamine, reference compound], the Spontaneous alternations % in series [4] is on record as 37%.
